# Reference: PubChem BioAssay AID256 (DTP/NCI, 2004)
# Where “and” joins values, the source holds several entries; their conditions need not be identical. Identical values can stand only once. Toxic doses and inconclusive results are not listed.
# Tested on: CD2F1 mice, L1210 leukemia ip, survival T/C
# Assay: NCI In Vivo Anticancer Drug Screen. Data for tumor model L1210 Leukemia (intraperitoneal) in CD2F1 (CDF1) mice
# Settings: higher = longer survival
# In short: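 Compound-dosed mice with transplantable tumor versus matched vehicle controls; endpoint ratio T/C reported.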
# [1] = endpoint: mean survival time, dose: 25.0 mg/kg/injection, schedule: Q01DX009 (ip), vehicle: saline with Tween-80
# [2] = endpoint: mean survival time, dose: 50.0 mg/kg/injection, schedule: Q01DX009 (ip), vehicle: saline with Tween-80
# [3] = endpoint: mean survival time, dose: 100.0 mg/kg/injection, schedule: Q01DX009 (ip), vehicle: saline with Tween-80
# [4] = endpoint: mean survival time, dose: 100.0 mg/kg/injection, schedule: Q04DX003 (ip), vehicle: saline with Tween-80
# [5] = endpoint: mean survival time, dose: 200.0 mg/kg/injection, schedule: Q04DX003 (ip), vehicle: saline with Tween-80
# [6] = endpoint: mean survival time, dose: 200.0 mg/kg/injection, schedule: Q01DX009 (ip), vehicle: saline with Tween-80
# [7] = endpoint: mean survival time, dose: 100.0 mg/kg/injection, schedule: Q01DX001 (ip), vehicle: saline with Tween-80
# [8] = endpoint: mean survival time, dose: 200.0 mg/kg/injection, schedule: Q01DX001 (ip), vehicle: saline with Tween-80
# [9] = endpoint: mean survival time, dose: 400.0 mg/kg/injection, schedule: Q01DX001 (ip), vehicle: saline with Tween-80
# [10] = endpoint: mean survival time, dose: 5.0 mg/kg/injection, schedule: Q01DX009 (ip), vehicle: saline
# [11] = endpoint: mean survival time, dose: 100.0 mg/kg/injection, schedule: Q01DX001 (ip), vehicle: saline
smiles,measurement,setting,value
COC12[C@@H](COC(N)=O)C3=C(C(=O)C(C)=C(NCCSSCCNC4=C(C)C(=O)C5=C(C4=O)C(COC(N)=O)[C@]4(OC)C6[C@@H](CN54)N6C)C3=O)N1C[C@@H]1[C@H]2N1C (stereo not given in full),T/C,"endpoint: mean survival time, dose: 6.0 mg/kg/injection, schedule: Q01DX001 (ip), vehicle: distilled water + Tween-80",114 % of control
CN(C=O)NC(=O)N(CCCl)N=O,T/C,"endpoint: median survival time, dose: 3.12 mg/kg/injection, schedule: Q01DX001 (ip), vehicle: saline",176 % of control and 200 % of control
same,T/C,"endpoint: median survival time, dose: 6.25 mg/kg/injection, schedule: Q01DX001 (ip), vehicle: saline",197 % of control and 312 % of control
same,T/C,"endpoint: median survival time, dose: 12.5 mg/kg/injection, schedule: Q01DX001 (ip), vehicle: saline",370 % of control and 375 % of control
same,T/C,"endpoint: median survival time, dose: 25.0 mg/kg/injection, schedule: Q01DX001 (ip), vehicle: saline",370 % of control and 375 % of control
same,T/C,"endpoint: median survival time, dose: 50.0 mg/kg/injection, schedule: Q01DX001 (ip), vehicle: saline",87 % of control
CC1(C)CC(C)(OC(=O)c2ccccc2)[N+]([O-])=N1 (stereo not given),T/C,"endpoint: mean survival time, dose: 25.0 mg/kg/injection, schedule: Q01DX009 (ip), vehicle: Klucel (hydroxypropylcellulose) (HPC)",100 % of control
same,T/C,"endpoint: mean survival time, dose: 50.0 mg/kg/injection, schedule: Q01DX009 (ip), vehicle: Klucel (hydroxypropylcellulose) (HPC)",98 % of control
same,T/C,"endpoint: mean survival time, dose: 100.0 mg/kg/injection, schedule: Q01DX009 (ip), vehicle: Klucel (hydroxypropylcellulose) (HPC)",98 % of control
same,T/C,"endpoint: mean survival time, dose: 200.0 mg/kg/injection, schedule: Q01DX009 (ip), vehicle: Klucel (hydroxypropylcellulose) (HPC)",95 % of control
same,T/C,"endpoint: mean survival time, dose: 400.0 mg/kg/injection, schedule: Q01DX009 (ip), vehicle: Klucel (hydroxypropylcellulose) (HPC)",98 % of control
NC(CO)C(O)c1ccc(N=Nc2ccc(O)cc2)cc1 (stereo not given),T/C,[1],100 % of control
same,T/C,[2],104 % of control
same,T/C,[3],94 % of control
CSc1ccc(OC(=O)Nc2ccccc2F)cc1,T/C,[4],101 % of control
same,T/C,[5],112 % of control
CN(C)c1n[nH]c(N)n1,T/C,"endpoint: mean survival time, dose: 76.0 mg/kg/injection, schedule: Q04DX003 (ip), vehicle: saline",97 % of control
same,T/C,"endpoint: mean survival time, dose: 115.0 mg/kg/injection, schedule: Q04DX003 (ip), vehicle: saline",101 % of control
same,T/C,"endpoint: mean survival time, dose: 174.0 mg/kg/injection, schedule: Q04DX003 (ip), vehicle: saline",104 % of control
same,T/C,"endpoint: mean survival time, dose: 264.0 mg/kg/injection, schedule: Q04DX003 (ip), vehicle: saline",103 % of control
same,T/C,"endpoint: mean survival time, dose: 400.0 mg/kg/injection, schedule: Q04DX003 (ip), vehicle: saline",105 % of control
NC1CCCCC1N.O=S(=O)([O-])c1cccc(S(=O)(=O)[O-])c1.[Pt+4],T/C,"endpoint: median survival time, dose: 6.25 mg/kg/injection, schedule: Q04DX003 (ip), vehicle: saline with Tween-80",166 % of control
same,T/C,"endpoint: median survival time, dose: 12.5 mg/kg/injection, schedule: Q04DX003 (ip), vehicle: saline with Tween-80",237 % of control and 370 % of control
same,T/C,"endpoint: median survival time, dose: 25.0 mg/kg/injection, schedule: Q04DX003 (ip), vehicle: saline with Tween-80",296 % of control and 325 % of control
O=[N+]([O-])c1ccc(NCc2ccccc2)c([N+](=O)[O-])c1,T/C,"endpoint: mean survival time, dose: 100.0 mg/kg/injection, schedule: Q04DX003 (ip), vehicle: gum acacia",98 % of control
same,T/C,"endpoint: mean survival time, dose: 200.0 mg/kg/injection, schedule: Q04DX003 (ip), vehicle: gum acacia",106 % of control
same,T/C,"endpoint: mean survival time, dose: 400.0 mg/kg/injection, schedule: Q04DX003 (ip), vehicle: gum acacia",102 % of control
CC(=O)Nc1cccc2ccccc12,T/C,[3],95 % of control
same,T/C,[6],97 % of control
O=C(/C=C(\NC1CCCCC1)C(=O)c1ccccc1)c1ccccc1,T/C,[3],87 % of control
same,T/C,[6],98 % of control
same,T/C,[5],86 % of control
same,T/C,"endpoint: mean survival time, dose: 400.0 mg/kg/injection, schedule: Q01DX009 (ip), vehicle: saline with Tween-80",97 % of control
same,T/C,"endpoint: mean survival time, dose: 400.0 mg/kg/injection, schedule: Q04DX003 (ip), vehicle: saline with Tween-80",86 % of control
Cc1cc(C(=O)O)c(C)c([N+](=O)[O-])c1,T/C,[7],96 % of control
same,T/C,[8],96 % of control
same,T/C,[9],100 % of control
CCN1/C(=C/C=C/C=C\C=C\c2sc3ccc4ccccc4c3[n+]2CC)Sc2ccc3ccccc3c21,T/C,"endpoint: mean survival time, dose: 1.25 mg/kg/injection, schedule: Q01DX009 (ip), vehicle: saline with Tween-80",116 % of control and 117 % of control and 112 % of control
same,T/C,"endpoint: mean survival time, dose: 2.5 mg/kg/injection, schedule: Q01DX009 (ip), vehicle: saline with Tween-80",116 % of control and 119 % of control and 120 % of control
same,T/C,"endpoint: mean survival time, dose: 5.0 mg/kg/injection, schedule: Q01DX009 (ip), vehicle: saline with Tween-80",114 % of control
same,T/C,"endpoint: mean survival time, dose: 10.0 mg/kg/injection, schedule: Q01DX009 (ip), vehicle: saline with Tween-80",117 % of control and 118 % of control
same,T/C,"endpoint: mean survival time, dose: 20.0 mg/kg/injection, schedule: Q01DX009 (ip), vehicle: saline with Tween-80",114 % of control and 116 % of control
same,T/C,"endpoint: mean survival time, dose: 40.0 mg/kg/injection, schedule: Q01DX009 (ip), vehicle: saline with Tween-80",101 % of control and 112 % of control
OCC1OC(n2ncc3c2ncn2ccnc32)C(O)C1O (stereo not given),T/C,"endpoint: mean survival time, dose: 12.5 mg/kg/injection, schedule: Q01DX005 (ip), vehicle: water",101 % of control
same,T/C,"endpoint: mean survival time, dose: 25.0 mg/kg/injection, schedule: Q01DX005 (ip), vehicle: water",101 % of control
same,T/C,"endpoint: mean survival time, dose: 50.0 mg/kg/injection, schedule: Q01DX005 (ip), vehicle: water",97 % of control
same,T/C,"endpoint: mean survival time, dose: 100.0 mg/kg/injection, schedule: Q01DX005 (ip), vehicle: water",97 % of control
same,T/C,"endpoint: mean survival time, dose: 200.0 mg/kg/injection, schedule: Q01DX005 (ip), vehicle: water",109 % of control
COc1ccc(/C=C/c2ccc3ccccc3[n+]2C)c(OC)c1OC,T/C,[10],98 % of control
same,T/C,"endpoint: mean survival time, dose: 10.0 mg/kg/injection, schedule: Q01DX009 (ip), vehicle: saline",86 % of control
Nc1nc2nc(-c3ccccc3)nc(N)c2nc1-c1ccc(N(CCO)CCO)cc1,T/C,"endpoint: mean survival time, dose: 45.0 mg/kg/injection, schedule: Q01DX001 (ip), vehicle: saline",100 % of control
same,T/C,"endpoint: mean survival time, dose: 67.0 mg/kg/injection, schedule: Q01DX001 (ip), vehicle: saline",97 % of control
same,T/C,[11],97 % of control
same,T/C,"endpoint: mean survival time, dose: 150.0 mg/kg/injection, schedule: Q01DX001 (ip), vehicle: saline",96 % of control
C[C@@H]1C[C@@H]([C@H](O)CC2CC(=O)NC(=O)C2)C(=O)[C@@H](C)C1,T/C,[10],104 % of control and 109 % of control
same,T/C,"endpoint: mean survival time, dose: 10.0 mg/kg/injection, schedule: Q01DX007 (ip), vehicle: saline",107 % of control
same,T/C,"endpoint: mean survival time, dose: 10.0 mg/kg/injection, schedule: Q03DX003 (ip), vehicle: saline",96 % of control
same,T/C,"endpoint: mean survival time, dose: 10.0 mg/kg/injection, schedule: Q04DX003 (ip), vehicle: saline",100 % of control
same,T/C,"endpoint: mean survival time, dose: 20.0 mg/kg/injection, schedule: Q01DX007 (ip), vehicle: saline",107 % of control
same,T/C,"endpoint: mean survival time, dose: 20.0 mg/kg/injection, schedule: Q03DX003 (ip), vehicle: saline",100 % of control
same,T/C,"endpoint: mean survival time, dose: 20.0 mg/kg/injection, schedule: Q04DX003 (ip), vehicle: saline",100 % of control
same,T/C,"endpoint: mean survival time, dose: 40.0 mg/kg/injection, schedule: Q01DX007 (ip), vehicle: saline",115 % of control
same,T/C,"endpoint: mean survival time, dose: 40.0 mg/kg/injection, schedule: Q03DX003 (ip), vehicle: saline",104 % of control
same,T/C,"endpoint: mean survival time, dose: 40.0 mg/kg/injection, schedule: Q04DX003 (ip), vehicle: saline",106 % of control
same,T/C,"endpoint: mean survival time, dose: 80.0 mg/kg/injection, schedule: Q01DX009 (ip), vehicle: saline",120 % of control
same,T/C,"endpoint: mean survival time, dose: 160.0 mg/kg/injection, schedule: Q01DX009 (ip), vehicle: saline",89 % of control
same,T/C,"endpoint: median survival time, dose: 12.5 mg/kg/injection, schedule: Q01DX009 (ip), vehicle: saline",109 % of control
same,T/C,"endpoint: median survival time, dose: 25.0 mg/kg/injection, schedule: Q01DX009 (ip), vehicle: saline",114 % of control and 119 % of control
same,T/C,"endpoint: median survival time, dose: 200.0 mg/kg/injection, schedule: Q01DX009 (ip), vehicle: saline",101 % of control
CCCC/C=C/C1CCCCC1C (stereo not given),T/C,[2],100 % of control
same,T/C,[3],104 % of control
same,T/C,[6],108 % of control
Nc1nc2c(ncn2-c2ccc3oc4ccccc4c3c2)c(=O)[nH]1,T/C,[7],93 % of control and 108 % of control
same,T/C,"endpoint: mean survival time, dose: 100.0 mg/kg/injection, schedule: Q04DX002 (ip), vehicle: saline with Tween-80",101 % of control
same,T/C,[8],89 % of control and 97 % of control
same,T/C,"endpoint: mean survival time, dose: 200.0 mg/kg/injection, schedule: Q04DX002 (ip), vehicle: saline with Tween-80",97 % of control
same,T/C,[9],89 % of control and 101 % of control
same,T/C,"endpoint: mean survival time, dose: 400.0 mg/kg/injection, schedule: Q04DX002 (ip), vehicle: saline with Tween-80",108 % of control
CCCCCCCCCCCCN(C)C,T/C,[1],92 % of control
same,T/C,"endpoint: mean survival time, dose: 25.0 mg/kg/injection, schedule: Q04DX003 (ip), vehicle: saline with Tween-80",97 % of control
same,T/C,"endpoint: mean survival time, dose: 50.0 mg/kg/injection, schedule: Q01DX001 (ip), vehicle: saline",96 % of control
same,T/C,[2],92 % of control
same,T/C,"endpoint: mean survival time, dose: 50.0 mg/kg/injection, schedule: Q04DX003 (ip), vehicle: saline with Tween-80",100 % of control
same,T/C,[11],100 % of control
same,T/C,[4],102 % of control
